The source of these data is PubChem BioAssay AID720598 (Broad Institute, 2013).

Bounds are passed on as bounds.

The assay relates to HT-29 viability, CellTiter-Glo ATP luminescence, 8-48 h. Put plainly: time-course viability loss in HT-29 cells – cell-based, CellTiter-Glo, multiple timepoints, dry powder, HRas target identification project, dose response (AID 720598).

For the molecule `CC(C)(C)OC(=O)NCCOCCOCCOc1ccc(N(C(=O)CCl)C(C(=O)NCCc2ccccc2)c2cccs2)cc1Cl` (stereo unspecified), the concentration at half-maximal activity (AC50) runs as follows: (measured here: 8 h treatment) 742 nM; (measured here: 24 h treatment) 448 nM; (measured here: 48 h treatment) 287 nM.
As for `COc1ccc(N(C(=O)CCl)C(C(=O)NCCc2ccccc2)c2cccs2)cc1Cl` (stereo unspecified), the AC50 runs as follows: (measured here: 8 h treatment) 729 nM; (measured here: 24 h treatment) 103 nM; (measured here: 48 h treatment) 56.1 nM.
In turn, `CCC(=O)N(c1ccc(OC)c(Cl)c1)C(C(=O)NCCc1ccccc1)c1cccs1` (stereo unspecified) returned an AC50 (measured here: 48 h treatment) of more than 70000 nM.
With `C#CCCCC(=O)NCCOCCOCCOc1ccc(N(C(=O)CCl)C(C(=O)NCCc2ccccc2)c2cccs2)cc1Cl` (stereo unspecified), the AC50 is 11900 nM (measured here: 8 h treatment), 1510 nM (measured here: 24 h treatment) and 1300 nM (measured here: 48 h treatment).
For `COC(=O)c1ccc([C@@H]2c3[nH]c4ccccc4c3C[C@@H](C(=O)OC)N2C(=O)CCl)cc1` the same measures were 486 nM, 133 nM and 85.6 nM.
For `Cc1onc(C(=O)N2CCN(C(c3ccc(Cl)cc3)c3ccc(Cl)cc3)CC2)c1[N+](=O)[O-]` the same measures were 2760 nM, 594 nM and 544 nM.
